≈ marks a conversion by molar mass, not a printed value.
Experiments:
M. tuberculosis Kato = assay: In vitro antibacterial activity (2): MIC by broth dilution method; assay type: cell-based; details: Mycobacterium tuberculosis; Middlebrook 7H9 broth, 35° C. for 10–21 days; read-out: MICs against Mycobacterium tuberculosis, M. tuberculosis Kato
Experimental: The minimum inhibitory concentration (MICs) of the test compounds against Mycobacterium tuberculosis was determined by the broth dilution method. After the solution of a test compound in dimethyl sulfoxide (DMSO) or distilled water was diluted with 50% aqueous acetone or distilled water, each two-fold dilution of the solution was carried out with Middlebrook 7H9 broth containing 0.05% Tween 80, 0.2% dextrose and Middlebrook ADC enrichment. […] The microorganisms cultivated on Ogawa medium were suspended uniformly in Middlebrook 7H9 broth containing 0.05% Tween 80, 0.2% dextrose and Middlebrook ADC enrichment. The microorganism solution was adjusted to about 1×10^7 CFU/mL using a spectrophotometer. The resulting microorganism solution was further diluted with Middlebrook 7H9 broth containing 0.05% Tween 80, 0.2% dextrose and Middlebrook ADC enrichment (final viable cell count: about 1×10^5 CFU/mL). After mixing the diluted microorganism solution with the diluted test compound solution in the test tube, cultivation was performed at 35° C. for 10–21 days. When significant growth was found in the control test tube with no test compound, the MIC was determined as the minimum concentration of the compound at which no colony was recognized macroscopically in the test tube.

[1] = test system: Mycobacterium avium Strain NIHJ 1605; assay: In vitro antibacterial activity (1): minimum inhibitory concentration, broth dilution; assay type: cell-based; details: NIHJ1605, 144 h; Mycobacterium avium NIHJ 1605; Middlebrook 7H9 broth, aerobic culture at 37° C. for 6 days

SMILES | MIC (M. tuberculosis Kato) [µg/mL] | MIC [1] [µg/mL]
CO[C@H]1[C@@H](O)[C@H](n2ccc(=O)[nH]c2=O)O[C@@H]1[C@@H](O[C@H]1OC(C(=O)Nc2ccc(F)c(F)c2)=C[C@H](O)[C@@H]1O)C(N)=O [Exemplification Compound No. 3712] | 1 (≈ 1.75 µM) | 2 (≈ 3.51 µM)
CO[C@H]1[C@@H](O)[C@H](n2ccc(=O)[nH]c2=O)O[C@@H]1[C@@H](O[C@H]1OC(C(=O)N[C@H]2CCCCNC2=O)=C[C@H](O)[C@@H]1O)C(N)=O [Capuramycin, capuramycin, reference compound] |  | 8 (≈ 14 µM)

From patent US7157442B2, “Antibacterial compound” (Sankyo Company, Limited, priority 1999, dated 2007)
